Test results from PubChem BioAssay AID248 (DTP/NCI, 2004).
Toxic doses and inconclusive results are not listed. Cut-off read from the data, not from the text of the source: active = T/C of 150% or more; inactive = T/C below 125%.

Tested on: L1210 leukemia ip in BDF1 mice, survival T/C
Assay: NCI In Vivo Anticancer Drug Screen. Data for tumor model L1210 Leukemia (intraperitoneal) in B6D2F1 (BDF1) mice
Conditions: endpoint: mean survival time, higher = longer survival
Outline: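 Mice bearing the transplanted tumor received compound or vehicle. Survival of the treated group was divided by that of the vehicle-treated control group to give the ratio.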

Measured: T/C

COc1cc(C(O)c2nccc3cc(OC)c(OC)cc23)c([N+](=O)[O-])cc1OC (stereo not drawn)
inactive: dose: 75.0 mg/kg/injection, schedule: Q01DX001 (ip), vehicle: saline 111 % of control | dose: 150.0 mg/kg/injection, schedule: Q01DX001 (ip), vehicle: saline 106 % of control | dose: 300.0 mg/kg/injection, schedule: Q01DX001 (ip), vehicle: saline 101 % of control

O=C(O)CCC(=O)Nc1cc(C(F)(F)F)ccc1Cl
inactive: dose: 100.0 mg/kg/injection, schedule: Q04DX002 (ip), vehicle: saline 102 % of control | dose: 200.0 mg/kg/injection, schedule: Q04DX002 (ip), vehicle: saline 97 % of control | dose: 400.0 mg/kg/injection, schedule: Q04DX002 (ip), vehicle: saline 108 % of control

COC(OC)c1[nH]c(=S)[nH]c(=O)c1Cc1ccc(-c2ccccc2)cc1
inactive: dose: 100.0 mg/kg/injection, schedule: Q04DX003 (ip), vehicle: saline with Tween-80 101 % of control | dose: 200.0 mg/kg/injection, schedule: Q04DX003 (ip), vehicle: saline with Tween-80 100 % of control | dose: 400.0 mg/kg/injection, schedule: Q04DX003 (ip), vehicle: saline with Tween-80 95 % of control

CC(C)(CO)NCc1ccc(Cl)cc1
inactive: dose: 100.0 mg/kg/injection, schedule: Q01DX001 (ip), vehicle: saline 93 % of control | dose: 200.0 mg/kg/injection, schedule: Q01DX001 (ip), vehicle: saline 97 % of control

CC(C)SC=O
inactive: dose: 50.0 mg/kg/injection, schedule: Q01DX009 (ip), vehicle: saline 94 % of control | dose: 100.0 mg/kg/injection, schedule: Q01DX009 (ip), vehicle: saline 93 % of control | dose: 100.0 mg/kg/injection, schedule: Q04DX003 (ip), vehicle: saline 100 % of control | dose: 200.0 mg/kg/injection, schedule: Q01DX009 (ip), vehicle: saline 93 % of control | dose: 200.0 mg/kg/injection, schedule: Q04DX003 (ip), vehicle: saline 105 % of control | dose: 400.0 mg/kg/injection, schedule: Q01DX009 (ip), vehicle: saline 89 % of control | dose: 400.0 mg/kg/injection, schedule: Q04DX003 (ip), vehicle: saline 100 % of control
